Experimental data published in patent US20260284009A1, “COMPOUNDS FOR NOS-RELATED CANCERS AND METHODS OF USE” (YISSUM RESEARCH DEVELOPMENT COMPANY OF THE HEBREW …, priority 2023, published 2026).

Columns and labels:
[1] = tested on: U87-MG cells; experiment: Nitrate and nitrite levels in U87-MG cells; assay type: cell-based, human; settings: 100 μM 7-NI, 500 or 1000 μM L-NIL, combinations of both, n=3
Experimental: In FIGS. 10A-10B, data are presented as mean±SEM. Statistical significance was determined using a One-way ANOVA with Bonferroni's multiple comparisons tests. *P<0.05, **P<0.01, and ns=not significant.
FIG. 10A: Quantitative analysis of nitrate and nitrite levels in U87-MG cells following administration of 0.1% DMSO (“Vehicle”) (n=3) or 100 μM 7-NI (“7-NI”) (n=3).
FIG. 10B: Quantitative analysis of nitrate and nitrite levels in U87-MG cells following administration of control (n=3), 500 μM L-NIL (“L-NIL 500”) (n=3), or 1000 μM L-NIL (“L-NIL 1000”) (n=3).
Data are expressed as the mean±SEM.

[2] = tested on: U87-MG cells; experiment: Clonogenic survival of U87-MG cells; assay type: cell-based, human; settings: 100 μM 7-NI, 500 or 1000 μM L-NIL, combinations 100 μM 7-NI + 500 or 1000 μM L-NIL
Source text: (§1) Data are presented as mean±SEM.
as §1

[3] = tested on: U87-MG cells; experiment: Clonogenic survival (colony) assay in U87-MG cells; assay type: cell-based, human
Experimental: (§2) Human glioblastoma U87-MG cells were obtained from the American Type Culture Collection (ATCC) and maintained in Dulbecco's modified Eagle's Medium (DMEM) and Ham's F-12 (1:1) supplemented with 10% fetal bovine serum, 2 mM L-glutamine, and 100 U/ml penicillin-G/[…] streptomycin in the humidified atmosphere (37° C., 5% CO2). Cells were plated onto 25 cm^2 and 75 cm^2 at a density of 7.0×10^5 and 2.1×10^6 cells/cm^2 respectively for Western blotting (WB) and 1×10^5 for immunofluorescence. The U87-MG cells were treated with 100 μM 7-nitroindazole (7-NI) for 24 hr.
Cells were seeded into 6-well plates at concentrations of 500/well or 1000/well in triplicates. After 24 hours, 7-NI was added, or cells were transiently transfected with siRNA-nNOS, as described above, before changing to serum-containing medium. […] Colonies were stained with crystal violet, washed with PBS, air-dried, and imaged. The colonies were visualized using ImageJ software. Cell colonies of greater than 50 cells were identified and counted.
(§3) In a particular example, in vitro and in vivo experiments were performed using U87-MG cells and U87-MG-xenografted mice, respectively, as a glioblastoma model.

[4] = tested on: U87-MG cells; experiment: Nitrite (Griess) assay in U87-MG cells; assay type: cell-based, human
Experimental: as §2, §3

[5] = tested on: U87-MG-xenografted mice; experiment: Tumor volume and tumor mass in U87-MG-xenografted mice; assay type: in vivo; settings: for tumor volume in a subset of mice: subset (top 4-5, smallest tumor volume) of U87-MG-xenografted mice, 10 mg/kg L-NIL or both
Experimental: In FIGS. 16A-16B, data are expressed as the mean±SEM. Statistical significance was determined using a One-way ANOVA followed by Fisher's LSD multiple comparison post hoc test. **P<0.01, ***P<0.001, ****P<0.0001, and ns=not significant.
FIG. 16A: Temporal tumor volume comparison for U87-MG-xenografted mice receiving treatment with 0.1% DMSO (“vehicle”) (n=10), 80 mg/kg 7-NI (“7-NI”) (n=10), 10 mg/kg L-NIL (“L-NIL”) (n=10), or 80 mg/kg 7-NI and 10 mg/kg L-NIL concurrently administered (“Combo”) (n=15).
FIG. 16B: Quantitative analysis of tumor volume for U87-MG-xenografted mice after 8 days for the experiments of FIG. 16A.
In FIGS. 17A-17B, data are expressed as the mean±SEM. Statistical significance was determined using a One-way ANOVA followed by Fisher's LSD multiple comparison post hoc test. *P<0.05, ****P<0.0001, and ns=not significant.
FIG. 17B: Quantitative analysis of tumor volume after 8 days for the subset of U87-MG-xenografted mice for the experiments of FIG. 17A.
In FIGS. 18A-18B, data are expressed as the mean.
Data are expressed as the mean±SEM. Statistical significance was determined using a One-way ANOVA with Bonferroni's multiple comparisons tests. **P<0.01, ****P<0.0001, ns=not significant.
Data are expressed as the mean±SEM. Statistical significance was determined using a One-way ANOVA with Bonferroni's multiple comparisons tests. *P<0.05, **P<0.01, ***P<0.001, and ****P<0.0001.

[6] = U87-MG-xenografted mice, 80 mg/kg 7-NI, 10 mg/kg L-NIL or both concurrently, after 8 days, vs vehicle

O=[N+]([O-])c1cccc2cn[nH]c12 [7-NI, 7-nitroindazole]
nitrate and nitrite levels [1]: significant decrease
clonogenic survival [2]: significant decrease
colony growth ([3]; 7-NI, vs control and negative control (0.1% DMSO)): significantly impacted
nitrite and nitrate content (Griess assay) ([4]; 7-NI): dramatic reduction
tumor volume [5, 6]: significantly smaller
tumor volume ([5]; U87-MG-xenografted mice, 20, 40 or 80 mg/kg 7-NI intraperitoneal for 14 days, vs vehicle): significantly smaller
tumor mass ([5]; U87-MG-xenografted mice, 20, 40 or 80 mg/kg 7-NI, after 14 days, vs vehicle): significantly smaller
tumor volume in a subset of mice ([5]; 80 mg/kg 7-NI, after 8 days): significantly smaller

CC(=N)NCCCC[C@H](N)C(=O)O [L-NIL, N^6-(1-iminoethyl)-L-lysine]
nitrate and nitrite levels [1]: significant decrease
clonogenic survival [2]: significant decrease
colony growth ([3]; higher dose of L-NIL, both experiments, vs control): significant decrease
colony growth ([3]; lower dose of L-NIL, one experiment (FIG. 9), vs control): significantly reduced
colony growth ([3]; lower dose of L-NIL, second experiment (FIGS. 8C-8D), reduced vs control): not statistically significant
nitrite and nitrate content (Griess assay) ([4]; higher dose of L-NIL, one experiment (FIG. 10B), vs control): significantly reduced
nitrite and nitrate content (Griess assay) ([4]; higher dose of L-NIL, second experiment (FIG. 11), reduced vs control): not statistically significant
nitrite and nitrate content (Griess assay) ([4]; lower dose of L-NIL, one experiment (FIG. 11), vs control): significantly reduced
nitrite and nitrate content (Griess assay) ([4]; lower dose of L-NIL, second experiment (FIG. 10B), reduced vs control): not statistically significant
tumor volume [5, 6]: significantly smaller
tumor volume in a subset of mice ([5]; 80 mg/kg 7-NI, after 8 days): significantly smaller
